US7335673B2, “2,3-Diphenylpropionic acid derivatives or their salts, medicines or cell adhesion inhibitors containing the same, and their usage” (Kaken Pharmaceutical Co., Ltd., priority 2001, dated 2008)

Assays:
LPAM-1/VCAM-1 adhesion = LPAM-1/VCAM-1 adhesion inhibition test
[1] = VLA-4/VCAM-1 cell adhesion inhibition test; format: cell-based; conditions: Homo sapiens; adhesion of BCECF-labeled HL-60 cells to VCAM-1-expressing CHO cells; read-out: 50% Inhibition Concentration
Protocol: VCAM-1-expressing CHO cells were placed in a 96-well cuture plate in an amount of 7×10^3 cells/well, and were cultured in Ham's F-12 medium containing 10 vol % fetal calf serum (FCS) for 3 days until a confluent state was satisfied. HL-60 cells were re-flotated in Hanks' solution containing 0.4 wt % bovine serum albumin (BSA), and fluorescence-labeled by adding 5 μM of 2′,7′-bis(carboxyethyl)-5(6)-carboxy fluorescein pentaacetoxymethyl ester (BCECF-AM). […]
Thus-pretreated HL-60 cells were then stratified in an amount of 2×10^5 cells/well in each well containing the cultured VCAM-1-expressing CHO cells, and allowed to adhere at 37° C. for 5 minutes. […] The cells were washed, destroyed by adding PBS containing 1 vol % NP-40, and fluorescence intensity of the obtained supernatant was measured using a fluorescence measurement system (Millipore, Model cyto Fluor 2300).
Blank experiment was based on fluorescence intensity of PBS containing 1 vol % NP-40. Standard experiment was carried out using the fluorescence-labeled HL-60 suspensions having a concentration of 2×10^5, 10^5, 2×10^4 and 10^4 cells/mL, respectively, where the suspensions were added to PBS containing 1 vol % NP-40, the cells were destroyed, and the fluorescence intensities of the obtained supernatant were measured. […]

IC50 [1]	Structure (SMILES)	inhibition activity in LPAM-1/VCAM-1 adhesion inhibition test (LPAM-1/VCAM-1 adhesion)
4.1 µM	COc1ccc(C(Cc2ccc(-c3c(OC)cccc3OC)cc2)C(=O)O)cc1N(CC(C)C)C(=O)C(C)(C)C (stereo not drawn) [Example 106]	showed the inhibition activity
6 µM	CC(C)CNc1cccc(C(Cc2ccc(NC(=O)c3c(Cl)cccc3Cl)cc2)C(=O)O)c1 (stereo not drawn) [Example 27]	
